Measurements reported in patent US12534429B2, “Heterodimers of glutamic acid” (Molecular Insight Pharmaceuticals, Inc., priority 2006, dated 2026).
Like-named read-outs stand apart in the source and are kept apart here.

Target: T1, PSMA on LNCaP cells (Homo sapiens, UniProt Q04609)
T1 construct: LNCaP human prostate cancer cells were obtained from American Type Culture Collection; host or cells: LNCaP human prostate cancer cells
Test: In vitro cell binding: competition with I-131 DCIT for binding to PSMA on LNCaP cells
Conditions: for competition with I-131 DCIT for binding to LnCap cells: screen at 2 uM test compound
Procedure: In vitro cold screening assays verses I-131 DCIT. LNCaP and PC3 human prostate cancer cells were obtained from American Type Culture Collection, Rockville, MD LNCaP cells were maintained in RPMI-1640 medium supplemented with 10% fetal bovine serum (FBS). PC3 cells were grown in F12K medium supplemented with 10% FBS. Binding of the radiolabeled compound and competition with cold derivatives to LNCaP and PC-3 cells was performed according to the methods of Tang et al. (Tang, H.; Brown, M.; Ye, Y.; Huang, G.; Zhang, Y.; Wang, Y.; Zhai, H.; Chen, X.; Shen, T. Y.; Tenniswood, M., Prostate targeting ligands based on N-acetylated alpha-linked acidic dipeptidase, Biochem. Biophys. Res. Commun. 2003, 307, 8-14) with appropriate modifications. Cells were plated in 12-well plates at approximately 4×10^5 cells/well and incubated for 48 hours in a humidified incubator at 37° C./5% carbon dioxide prior to addition of compound. Each unique SAAC-urea-Glu conjugate was prepared and diluted in serum-free cell culture medium containing 0.5% bovine serum albumin (BSA) in combination with 3 nM I-131 DCIT (known inhibitor). Total binding was determined by incubating I-131 DCIT without test compound. Plates were incubated at room temperature for 1 hour. Cells were removed from the plates by gently pipeting and transferred to eppendorff tubes. Samples were microcentrifuged for 15 seconds at 10K×g. The medium was aspirated and the pellet was washed twice by dispersal in fresh assay medium followed by microcentrifugation. Cell binding of I-131 DCIT was determined by counting the cell pellet in an automated gamma counter. […] The control compounds are depicted below.
The ability of non-radioactive analogs to compete with ^131I-DCIT for binding to PSMA was tested in the PSMA positive human prostate cancer cell line, LNCaP cells. LNCaP cells (300,000 cells/well) were incubated for 1 hour with 3 nM [^131I]-DCIT in the presence of 1-10,000 nM MIP-1072 in RPMI-1640 medium supplemented with 0.5% bovine serum albumin, then washed and counted in a gamma counter. All documents cited in this specification including patent applications are incorporated by reference in their entirety.

[1] = LNCaP cells, 3 nM I-131 DCIT, 1 hour, read-out: IC50 (nM), in vitro cell binding data
[2] = LnCap cells, dose curves, read-out: IC-50 versus I-131 DCIT
[3] = LnCap cells, dose curves, read-out: IC50 values versus I-131 DCIT

T1 sequence (Q04609 whole entry): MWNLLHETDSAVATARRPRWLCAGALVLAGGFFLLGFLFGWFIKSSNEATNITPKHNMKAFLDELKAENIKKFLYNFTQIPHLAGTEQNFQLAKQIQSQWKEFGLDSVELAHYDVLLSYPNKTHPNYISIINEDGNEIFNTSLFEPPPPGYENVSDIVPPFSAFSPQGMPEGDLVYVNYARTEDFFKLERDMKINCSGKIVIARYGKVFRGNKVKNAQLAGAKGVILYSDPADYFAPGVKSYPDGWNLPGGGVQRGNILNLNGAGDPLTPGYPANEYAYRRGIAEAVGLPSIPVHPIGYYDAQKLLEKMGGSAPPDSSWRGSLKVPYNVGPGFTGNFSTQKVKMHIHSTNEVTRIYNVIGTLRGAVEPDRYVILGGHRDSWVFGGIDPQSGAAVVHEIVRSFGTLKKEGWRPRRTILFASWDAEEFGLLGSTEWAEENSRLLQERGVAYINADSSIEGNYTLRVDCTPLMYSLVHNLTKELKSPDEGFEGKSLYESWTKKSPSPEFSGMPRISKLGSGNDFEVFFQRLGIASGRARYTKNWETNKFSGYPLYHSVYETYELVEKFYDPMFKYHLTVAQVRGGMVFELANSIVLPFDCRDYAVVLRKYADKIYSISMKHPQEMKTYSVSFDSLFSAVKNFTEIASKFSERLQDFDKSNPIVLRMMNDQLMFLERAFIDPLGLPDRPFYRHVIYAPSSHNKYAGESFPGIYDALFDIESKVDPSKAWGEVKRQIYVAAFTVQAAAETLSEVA

| IC50 [1] [nM] | SMILES | other results |
| --- | --- | --- |
| 12 | O=C(O)CC[C@H](NC(=O)N[C@@H](CCCCNC(=O)Nc1ccccc1)C(=O)O)C(=O)O (stereo in doubt) [MIP 1111, 2-(3-{1-Carboxy-5-[3-(phenyl)-ureido]-pentyl}-ureido)-pentanedioic acid] |  |
| 2960 | O=C(O)CC[C@H](NC(=O)NC(CCCCNCc1ccccc1)C(=O)O)C(=O)O (stereo in doubt) [MIP-1106, (S)-2-(3-((R)-5-(benzylamino)-1-carboxypentyl)ureido)pentanedioic acid] |  |
|  | O=C(O)CC[C@H](NC(=O)N[C@@H](CCCCN(Cc1ccccn1)Cc1ccccn1)C(=O)O)C(=O)O [MIP 1008, (S, S)-2-{3-[5-(Bis-pyridin-2-ylmethyl-amino)-1-carboxy-pentyl]-ureido}-pentanedioic acid] | IC50 [2]: 98 nM; competition with I-131 DCIT for binding to LnCap cells: competed |
|  | O=C(O)CC[C@H](NC(=O)N(Cc1ccccn1)Cc1ccccn1)C(=O)O [MIP 1025, (S)-2-(3,3-Bis-pyridin-2-ylmethyl-ureido)-pentanedioic acid] | competition with I-131 DCIT for binding to LnCap cells: did not compete |
|  | O=C(O)CC[C@H](NC(=O)N[C@@H](CCN(Cc1ccccn1)Cc1ccccn1)C(=O)O)C(=O)O [MIP 1028, (S, S)-2-{3-[3-(Bis-pyridin-2-ylmethyl-amino)-1-carboxy-propyl]-ureido}-pentanedioic acid] | competition with I-131 DCIT for binding to LnCap cells: did not compete |
| 10 | O=C(O)CC[C@H](NC(=O)N[C@@H](CCCCNC(=O)Nc1ccc(I)cc1)C(=O)O)C(=O)O [MIP 1095, 2-(3-{1-Carboxy-5-[3-(4-iodo-phenyl)-ureido]-pentyl}-ureido)-pentanedioic acid] | IC50 [3]: < 50 nM |
|  | O=C(O)CC[C@H](NC(=O)N[C@@H](CCCCNS(=O)(=O)c1ccc(I)cc1)C(=O)O)C(=O)O [MIP 1097, 2-{3-[1-carboxy-5-(4-iodo-benzenesulfonylamino)-pentyl]-ureido}-pentanedioic acid] | IC50 [3]: < 50 nM |
| 4 | O=C(O)CC[C@H](NC(=O)N[C@@H](CCCCNC(=O)Nc1ccc(Cl)cc1)C(=O)O)C(=O)O [MIP 1110, 2-(3-{1-Carboxy-5-[3-(4-chloro-phenyl)-ureido]-pentyl}-ureido)-pentanedioic acid] |  |
| 277 | O=C(O)CC[C@H](NC(=O)N[C@@H](CCCCNCc1cccc(Cl)c1)C(=O)O)C(=O)O [MIP 1131, (S, S)-2-{3-[1-Carboxy-5-(3-chloro-benzylamino)-pentyl]-ureido}-pentanedioic] |  |
| 2 | O=C(O)CC[C@H](NC(=O)N[C@@H](CCCCNCc1ccc(Cl)cc1)C(=O)O)C(=O)O [MIP 1135, (S, S)-2-{3-[1-Carboxy-5-(4-chloro-benzylamino)-pentyl]-ureido}-pentanedioic] |  |
| 10 | O=C(O)CC[C@H](NC(=O)N[C@@H](CCCCNC(=O)NCc1cccc(I)c1)C(=O)O)C(=O)O [MIP-1101, 2-(3-{1-Carboxy-5-[3-(3-iodo-benzyl)-ureido]-pentyl}-ureido)-pentanedioic acid] |  |
| 154 | O=C(O)CC[C@H](NC(=O)N[C@@H](CCCCNCc1cccc2ccccc12)C(=O)O)C(=O)O [MIP-1108, (S)-2-(3-((R)-1-carboxy-5-([…]yridine[…]ne-1-ylmethylamino)pentyl)ureido)pentanedioic acid] |  |
| 300 | O=C(O)CC[C@H](NC(=O)N[C@@H](CCCCNC(=O)CCCCCCCCCCN(Cc1ccc(I)cc1)Cc1ccc(I)cc1)C(=O)O)C(=O)O [MIP-1130, (19S,23S)-2-(4-iodobenzyl)-1-(4-iodophenyl)-13,21-dioxo-2,14,20,22-tetraazapentacosane-19,23,25-tricarboxylic acid] |  |
| 245 | O=C(O)CC[C@H](NC(=O)N[C@@H](CCCCNCc1ccccc1Cl)C(=O)O)C(=O)O [MIP-1137, (S, S)-2-{3-[1-Carboxy-5-(2-chloro-benzylamino)-pentyl]-ureido}-pentanedioic] |  |

| SMILES | IC50 [1] [nM] | other results |
| --- | --- | --- |
| NCCCC[C@H](NC(=O)N[C@@H](CCC(=O)O)C(=O)O)C(=O)O [MIP 1033, (S, S)-2-[3-(5-Amino-1-carboxy-pentyl)-ureido]-pentanedioic acid] | 498 | IC50 [2]: 497 nM; competition with I-131 DCIT for binding to LnCap cells: competed |
